Test [1] addresses T1, CAT-1 (carnitine acyltransferase 1) (Rattus norvegicus, UniProt Q63704).
T1 construct: This preparation is used as the isolated mitochondrial preparation; from tissue; host or cells: rat heart (atria removed), isolated mitochondria
T1 sequence (Q63704 1-772): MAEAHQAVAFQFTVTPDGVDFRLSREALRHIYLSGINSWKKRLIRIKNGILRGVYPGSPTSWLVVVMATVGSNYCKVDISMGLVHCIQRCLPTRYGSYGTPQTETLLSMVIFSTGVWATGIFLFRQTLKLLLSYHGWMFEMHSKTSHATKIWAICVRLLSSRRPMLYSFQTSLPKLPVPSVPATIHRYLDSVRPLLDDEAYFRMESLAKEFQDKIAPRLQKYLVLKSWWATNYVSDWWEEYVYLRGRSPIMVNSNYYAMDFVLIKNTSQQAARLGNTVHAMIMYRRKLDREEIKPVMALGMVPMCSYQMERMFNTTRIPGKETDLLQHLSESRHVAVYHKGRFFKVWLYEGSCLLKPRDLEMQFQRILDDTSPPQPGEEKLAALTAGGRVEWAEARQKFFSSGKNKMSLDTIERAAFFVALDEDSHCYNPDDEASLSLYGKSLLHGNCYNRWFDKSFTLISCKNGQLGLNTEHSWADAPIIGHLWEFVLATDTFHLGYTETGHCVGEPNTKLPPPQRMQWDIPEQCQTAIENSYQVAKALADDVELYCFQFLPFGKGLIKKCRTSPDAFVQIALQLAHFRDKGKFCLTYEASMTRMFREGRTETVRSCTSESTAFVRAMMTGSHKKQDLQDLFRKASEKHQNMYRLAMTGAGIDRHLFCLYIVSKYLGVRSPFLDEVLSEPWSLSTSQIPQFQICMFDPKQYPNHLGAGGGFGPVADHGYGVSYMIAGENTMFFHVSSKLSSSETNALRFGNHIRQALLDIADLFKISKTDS
Put plainly: Primary Screen--Inhibition of CAT-1 in isolated mitochondria. It counts as biochemical. To be noted: rat heart mitochondria, reduction of palmitoyl carnitine formation by 50%; read-out: Primary Screen IC50.
Description: Primary Screen--Inhibitors of CAT-1 in 1Mitochondria
(a). Preparation of Mitochondria
The heart is rapidly removed from an anesthetized rat (sodium pentabarbitol) and placed in ice-cold homogenization buffer (sucrose, 250 mM; Tris, 10 mM; EDTA, 1 mM; BSA, 0.01%; pH=7.4). The atria and extraneous tissue are removed and the remainder is chopped with scissors. The pieces are rinsed in homogenization buffer before being homogenized in 10 mL of the same buffer for 5-7 seconds. The homogenate is then diluted with homogenization buffer (40 total volume) and centrifuged at 200 g for 20 minutes. The supernatant is withdrawn and centrifuged at 7000 g for 20 minutes and the resulting pellet is isolated, resuspended in 40 mL of homogenization buffer and centrifuged once more at 7000 g for 20 minutes. The isolated pellet is resuspended in 10 mL of homogenization buffer and stored at 4° C. until use. This preparation is used as the isolated mitochondrial preparation.
(b). Inhibition of CAT-1 assay
Isolated mitochondria (20 μL) are incubated with 60 μL of Tris/sucrose buffer (sucrose, 500 mM; Tris, 20 mM; KCl, 100 mM; EDTA, 2 mM; pH=7.0 plus 83 μM palmitoyl CoA, and BSA, 0.8 mg/mL and 10^-4 to 10^-10 M of the drug to be tested. After 10 minutes at 30° C., the reaction is started by addition of 10 μL of ^3 H-carnitine (final concentration=250 μM). After 5 minutes, the reaction is terminated by the addition of ice cold 70% perchloric acid (PCA). The precipitated solids so formed, containing the insoluble product of the enzyme palmitoyl carnitine, are captured on filter paper. The filter paper is washed with 7% PCA, then dried and placed in scintillation vials with 10 mL of scintillant (Aquasol, New England Nuclear) and counted for radioactivity. The rate of the reaction is assessed by the difference in radioactivity between zero time and five minutes in the absence of test compound. The ability of test compounds at selected concentrations to inhibit CAT-1 is determined by their ability to reduce the formation of the radioactive product. The IC50 of the test compound is the concentration of test compound that reduces the formation of radioactive product by 50%.

Test [2] addresses T1, CAT-1 (carnitine acyltransferase 1). The test is described as follows: Secondary Screen--Inhibition of CAT-1 in intact cardiac myocytes (hypoxia-induced increase in long-chain acylcarnitines). Type of test: cell-based. Further details: inhibition: dose or concentration left out as unconfirmed. To be noted: isolated rat cardiac myocytes; for IC50: 50% inhibition of hypoxia-induced increase in long-chain acylcarnitines.

Counter-ions that a name gives are not always drawn.

From patent US5344843A, “Cat-1 inhibitors, pharmaceutical compositions and methods of use” (Hoffman-La Roche Inc., priority 1992, dated 1994) come the findings set out here.

By IC50 is commonly meant the concentration that gives 50% inhibition. The term inhibition denotes the share of the control response that was lost under treatment.

For `O=C(NO)C(=O)c1ccc(OCCOc2ccc3ccccc3c2)s1` [Example 300, N-hydroxy-5-[2-(2-naphthalenyloxy)ethoxy]-alpha-oxo-2-thiopheneacetamide], the figures for the IC50 in test [1] and in test [2] were 2100 nM and 5000 nM, respectively.
In the same order, the values of `CCC(C)(C)C(=O)OCc1cccc(C)c1OCCOc1ccc(/C(=N/OC)C(=O)O)cc1` [Example 304, (Z)-4-[2-[2-[(2,2-Dimethyl-1-oxobutoxy)methyl]-6-methylphenyloxy]ethoxy]-alpha-methoxyiminobenzeneacetic acid] are 3300 nM and 5000 nM.
With `CN(O)C(=O)C(=O)c1ccc(OCCOc2ccc3ccccc3c2)cc1` [Example 299, N-hydroxy-N-methyl-4-[2-(2-naphthalenyloxy)ethoxy]-alpha-oxobenzeneacetamide], the figures for the IC50 in test [1] and in test [2] were 1900 nM and 8000 nM, respectively.
In the case of `O=C(O)C(=O)c1ccc(OCCCCCCc2cccc(O)c2O)cc1` [Example 260, 4-[6-(2,3-dihydroxyphenyl)hexyloxy]-alpha-oxobenzeneacetic acid], in test [1], the IC50 stood at 4000 nM. In test [2] (hypoxia), this compound returned an inhibition of 94%.
Consider `O=C(O)C(=O)c1ccc(OCCCCc2ccccc2)cc1` [Example 25, 4-[(4-phenybutyl)oxy]-alpha-oxobenzeneacetic acid], for which the IC50 in test [1] turned out to be 2000 nM; in test [2] it was 12000 nM.
Turning to `C[N+](C)(C)CCOC(=O)C(=O)c1ccc(OCCOc2ccc3ccccc3c2)s1` [Example 7, 2-[[5-[[2-(2-naphthalenyloxy)ethyl]oxy]-alpha-oxo-2-thiopheneacetyl]oxy]-N,N,N-trimethylethanaminium iodide], the IC50 worked out at 30 nM in test [1] and 100 nM in test [2].
Regarding `O=C(OCCOCCOCCO)C(=O)c1ccc(OCCOc2ccc3ccccc3c2)cc1` [Example 105, 4-[[2-(2-naphthalenyloxy)ethyl]oxy]-alpha-oxobenzeneacetic acid 2-[2-(2-hydroxyethoxy)ethoxy]ethyl ester], the half-inhibitory concentration (IC50) in test [1] is 40 nM; in test [2], 75000 nM.
Consider `O=C(O)C(=O)c1ccc(OCC(=O)c2ccc3ccccc3c2)cc1` [Example 157, 4-[2-(2-naphthalenyl)-2-oxoethoxy]-alpha-oxobenzeneacetic acid], for which the IC50 was 50 nM in test [1] and 300 nM in test [2].
In the same order, the values of `O=C(O)C(=O)c1ccc(OCCOc2cccc3ccccc23)cc1` [Example 84, 4-[[2-(1-naphthalenyloxy)ethyl]oxy]-alpha-oxobenzeneacetic acid] are 80 nM and 4000 nM.
For `O=C(O)C(=O)c1ccc(OCCOc2ccc3ccccc3c2)cc1Cl` [Example 187, 2-chloro-4-[2-(2-naphthalenyloxy)ethoxy]-alpha-oxobenzeneacetic acid], in that order: 300 nM and 9000 nM.
In the case of `N[C@H](C(=O)O)c1ccc(OCCOC2CCCCCCC2)cc1` [Example 18, (S)-alpha-amino-4-[[2-(cyclooctyloxy)ethyl]oxy]benzeneaceticacid hydrochloride], the half-inhibitory concentration (IC50) in test [1] stood at 37400 nM; in test [2] it was 5000 nM.
Consider `O=C(O)C(F)(F)c1ccc(OCCOc2ccc3ccccc3c2)cc1` [Example 13, alpha, alpha-difluoro-4-[[2-(2-naphthalenyloxy)ethyl]oxy]benzeneacetic acid], for which the IC50 in test [1] came out at 1750 nM; in test [2], 3800 nM.
On to `CN(C)CCOC(=O)C(=O)c1ccc(OCCOc2ccc3ccccc3c2)s1` [Example 6, 5-[[2-(2-naphthalenyloxy)ethyl]oxy]-alpha-oxo-2-thiopheneacetic acid 2-(dimethylamino)ethyl ester], for which the values for the 50% inhibitory concentration (IC50) in test [1] and in test [2] were 40 nM and 300 nM, respectively.
Take `O=C(O)C(=O)c1ccc(OCCOC2CCCCCCC2)cc1` [Example 101, 4-[[2-(cyclooctyloxy)ethyl]oxy]-alpha-oxobenzeneacetic acid]: the results for the IC50 in test [1] and in test [2] were 900 nM and 50000 nM, respectively.
